Assay results reported in paper PMC6979384, “Characterization of the plant homeodomain (PHD) reader family for their histone tail interactions” (Epigenetics & Chromatin, 2020).

Experiments:
Assay in all cases: Histone peptide microarray
Format in all cases: binding, human
[1] = system: KDM4C (TTP); settings: total n = 4; for Array Heatmap signal (histone peptide microarray): GST-tagged KDM4C (TTP = Tandem Tudor domain + PHD), sheet Array Heatmap, each array performed twice
How it was run: (§1)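 GST-tagged PHD readers, 0.5 μM, probed on a microarray of 293 synthetic histone peptides carrying single or combinatorial PTMs (optimized Petell protocol). Signals are averaged over 4 replicates and expressed as relative binding.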

[2] = system: KDM7A; settings: total n = 4; for Array Heatmap signal (histone peptide microarray): GST-tagged KDM7A, sheet Array Heatmap, each array performed twice
How it was run: as §1

[3] = system: MLL5; settings: total n = 4; for Array Heatmap signal (histone peptide microarray): GST-tagged MLL5, sheet Array Heatmap, each array performed twice
How it was run: as §1

[4] = system: TRIM66 (PB); settings: total n = 4; for Array Heatmap signal (histone peptide microarray): GST-tagged TRIM66 (PB = PHD + Bromodomain), sheet Array Heatmap, each array performed twice
How it was run: as §1

[5] = system: PHF8; settings: total n = 4; for Array Heatmap signal (histone peptide microarray): GST-tagged PHF8, sheet Array Heatmap, each array performed twice
How it was run: as §1

[6] = system: ING4; settings: total n = 4; for Array Heatmap signal (histone peptide microarray): GST-tagged ING4, sheet Array Heatmap, each array performed twice
How it was run: as §1

[7] = system: CHD5 (PCC); settings: total n = 4; for Array Heatmap signal (histone peptide microarray): GST-tagged CHD5 (PCC = PHD + Dual Chromodomain), sheet Array Heatmap, each array performed twice
How it was run: as §1

[8] = system: MORC3 (CW); settings: total n = 4; for Array Heatmap signal (histone peptide microarray): GST-tagged MORC3 (CW = CW-type Zn-finger), sheet Array Heatmap, each array performed twice
How it was run: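 Each reader, produced as a GST fusion and purified, was tested at 0.5 μM on synthetic histone peptides (293 in total) carrying single or combinatorial marks. Intensities averaged over four replicates.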

[9] = system: PHF13; settings: total n = 4; for Array Heatmap signal (histone peptide microarray): GST-tagged PHF13, sheet Array Heatmap, each array performed twice
How it was run: as §1

[10] = system: PHF21A; settings: total n = 4; for Array Heatmap signal (histone peptide microarray): GST-tagged PHF21A, sheet Array Heatmap, each array performed twice
How it was run: as §1

[11] = system: PHRF1 (RP); settings: total n = 4; for Array Heatmap signal (histone peptide microarray): GST-tagged PHRF1 (RP), sheet Array Heatmap, each array performed twice
How it was run: as §1

[12] = system: BAZ2B; settings: total n = 4; for Array Heatmap signal (histone peptide microarray): GST-tagged BAZ2B, sheet Array Heatmap, each array performed twice
How it was run: as §1

[13] = system: ING2; settings: total n = 4; for Array Heatmap signal (histone peptide microarray): GST-tagged ING2, sheet Array Heatmap, each array performed twice
How it was run: as §1

[14] = system: ING5; settings: total n = 4; for Array Heatmap signal (histone peptide microarray): GST-tagged ING5, sheet Array Heatmap, each array performed twice
How it was run: as §1

[15] = system: CHD4 (PPCC); settings: total n = 4; for Array Heatmap signal (histone peptide microarray): GST-tagged CHD4 (PPCC = Dual PHD + Dual Chromodomain), sheet Array Heatmap, each array performed twice
How it was run: as §1

[16] = system: DIDO1; settings: total n = 4; for Array Heatmap signal (histone peptide microarray): GST-tagged DIDO1, sheet Array Heatmap, each array performed twice
How it was run: as §1

[17] = system: BPTF (PB); settings: total n = 4; for Array Heatmap signal (histone peptide microarray): GST-tagged BPTF (PB = PHD + Bromodomain), sheet Array Heatmap, each array performed twice
How it was run: as §1

[18] = system: PHF23; settings: total n = 4; for Array Heatmap signal (histone peptide microarray): GST-tagged PHF23, sheet Array Heatmap, each array performed twice
How it was run: as §1

[19] = system: RAG2; settings: total n = 4; for Array Heatmap signal (histone peptide microarray): GST-tagged RAG2, sheet Array Heatmap, each array performed twice
How it was run: as §1

[20] = system: PHF2; settings: total n = 4; for Array Heatmap signal (histone peptide microarray): GST-tagged PHF2, sheet Array Heatmap, each array performed twice
How it was run: as §1

[21] = system: CHD5 (PPCC); settings: total n = 4; for Array Heatmap signal (histone peptide microarray): GST-tagged CHD5 (PPCC = Dual PHD + Dual Chromodomain), sheet Array Heatmap, each array performed twice
How it was run: as §1

[22] = system: KDM5A (3); settings: total n = 4; for Array Heatmap signal (histone peptide microarray): GST-tagged KDM5A (3), sheet Array Heatmap, each array performed twice
How it was run: as §1

[23] = system: ING1; settings: total n = 4; for Array Heatmap signal (histone peptide microarray): GST-tagged ING1, sheet Array Heatmap, each array performed twice
How it was run: as §1

[24] = system: TAF3; settings: total n = 4; for Array Heatmap signal (histone peptide microarray): GST-tagged TAF3, sheet Array Heatmap, each array performed twice
How it was run: as §1

[25] = system: KDM5B (1); settings: total n = 4; for Array Heatmap signal (histone peptide microarray): GST-tagged KDM5B (1), sheet Array Heatmap, each array performed twice
How it was run: as §1

[26] = system: SP140L; settings: total n = 4; for Array Heatmap signal (histone peptide microarray): GST-tagged SP140L, sheet Array Heatmap, each array performed twice
How it was run: as §1

[27] = system: DPF2 (PPC2W2); settings: total n = 4; for Array Heatmap signal (histone peptide microarray): GST-tagged DPF2 (PPC2W2 = Dual PHD + C2W2-type Zn-finger), sheet Array Heatmap, each array performed twice
How it was run: as §1

[28] = system: AIRE (PP); settings: total n = 4; for Array Heatmap signal (histone peptide microarray): GST-tagged AIRE (PP), sheet Array Heatmap, each array performed twice
How it was run: as §1

[29] = system: KDM5B (3); settings: total n = 4; for Array Heatmap signal (histone peptide microarray): GST-tagged KDM5B (3), sheet Array Heatmap, each array performed twice
How it was run: as §1

[30] = system: KDM5A (1); settings: total n = 4; for Array Heatmap signal (histone peptide microarray): GST-tagged KDM5A (1), sheet Array Heatmap, each array performed twice
How it was run: as §1

[31] = system: ING3; settings: total n = 4; for Array Heatmap signal (histone peptide microarray): GST-tagged ING3, sheet Array Heatmap, each array performed twice
How it was run: as §1

[32] = sheet "Array Heatmap", GST-tagged reader, histone peptide array

## H3K4me3 + K9ac + K14ac + K18ac: H3 1-20
[1]
  Array Heatmap signal (histone peptide microarray): 0.6463
[2]
  Array Heatmap signal (histone peptide microarray): 0.5567
[3]
  Array Heatmap signal (histone peptide microarray): 0.936
[4]
  Array Heatmap signal (histone peptide microarray): 0.6004
[5]
  Array Heatmap signal (histone peptide microarray): 0.7502
[6]
  Array Heatmap signal (histone peptide microarray): 0.625
[7]
  Array Heatmap signal (histone peptide microarray): 0.8618
[8]
  Array Heatmap signal (histone peptide microarray): 1
[9]
  Array Heatmap signal (histone peptide microarray): 0.7829
[10]
  Array Heatmap signal (histone peptide microarray): 0.4925
[11]
  Array Heatmap signal (histone peptide microarray): 0.5895
[12]
  Array Heatmap signal (histone peptide microarray): 0.6196
[13]
  Array Heatmap signal (histone peptide microarray): 0.8772
[14]
  Array Heatmap signal (histone peptide microarray): 0.4716
[15]
  Array Heatmap signal (histone peptide microarray): 0.5745
[16]
  Array Heatmap signal (histone peptide microarray): 0.9126
[17]
  Array Heatmap signal (histone peptide microarray): 0.7619
[18]
  Array Heatmap signal (histone peptide microarray): 0.8373
[19]
  Array Heatmap signal (histone peptide microarray): 0.8746
[20]
  Array Heatmap signal (histone peptide microarray): 0.7873
[21]
  Array Heatmap signal (histone peptide microarray): 0.5931
[22]
  Array Heatmap signal (histone peptide microarray): 0.9909
[23]
  Array Heatmap signal (histone peptide microarray): 0.7787
[24]
  Array Heatmap signal (histone peptide microarray): 0.6574
[25]
  Array Heatmap signal (histone peptide microarray): 0.7481
[26]
  Array Heatmap signal (histone peptide microarray): 0.3627
[27]
  Array Heatmap signal (histone peptide microarray): 0.7652
[28]
  Array Heatmap signal (histone peptide microarray): 0.4865
[29]
  Array Heatmap signal (histone peptide microarray): 0.8339
[30]
  Array Heatmap signal (histone peptide microarray): 0.4983
[31]
  Array Heatmap signal (histone peptide microarray): 0.8559

## H3K4me3 + K9ac + K18ac: H3 1-20
[1]
  Array Heatmap signal (histone peptide microarray): 0.7748
[2]
  Array Heatmap signal (histone peptide microarray): 1
[3]
  Array Heatmap signal (histone peptide microarray): 0.9085
[4]
  Array Heatmap signal (histone peptide microarray): 0.7372
[5]
  Array Heatmap signal (histone peptide microarray): 1
[6]
  Array Heatmap signal (histone peptide microarray): 0.6909
[7]
  Array Heatmap signal (histone peptide microarray): 0.8455
[8]
  Array Heatmap signal (histone peptide microarray): 0.8949
[9]
  Array Heatmap signal (histone peptide microarray): 0.8179
[10]
  Array Heatmap signal (histone peptide microarray): 0.4825
[11]
  Array Heatmap signal (histone peptide microarray): 0.6174
[12]
  Array Heatmap signal (histone peptide microarray): 0.5371
[13]
  Array Heatmap signal (histone peptide microarray): 0.8776
[14]
  Array Heatmap signal (histone peptide microarray): 0.4905
[15]
  Array Heatmap signal (histone peptide microarray): 0.5646
[16]
  Array Heatmap signal (histone peptide microarray): 0.9071
[17]
  Array Heatmap signal (histone peptide microarray): 0.7655
[18]
  Array Heatmap signal (histone peptide microarray): 0.8424
[19]
  Array Heatmap signal (histone peptide microarray): 0.8902
[20]
  Array Heatmap signal (histone peptide microarray): 0.7127
[21]
  Array Heatmap signal (histone peptide microarray): 0.6046
[22]
  Array Heatmap signal (histone peptide microarray): 0.919
[23]
  Array Heatmap signal (histone peptide microarray): 0.8615
[24]
  Array Heatmap signal (histone peptide microarray): 0.7825
[25]
  Array Heatmap signal (histone peptide microarray): 0.7108
[26]
  Array Heatmap signal (histone peptide microarray): 0.3543
[27]
  Array Heatmap signal (histone peptide microarray): 0.728
[28]
  Array Heatmap signal (histone peptide microarray): 0.5297
[29]
  Array Heatmap signal (histone peptide microarray): 0.9067
[30]
  Array Heatmap signal (histone peptide microarray): 0.5009
[31]
  Array Heatmap signal (histone peptide microarray): 0.8253

## H3K4me3 + K9ac + S10p: H3 1-20
[1]; [32]
  Array Heatmap signal, KDM4C (TTP): 0.4439
[2]; [32]
  Array Heatmap signal, KDM7A: 0.3478
[3]; [32]
  Array Heatmap signal, MLL5: 0.6372
[4]; [32]
  Array Heatmap signal, TRIM66 (PB): 0.5913
[5]; [32]
  Array Heatmap signal, PHF8: 0.4377
[6]; [32]
  Array Heatmap signal, ING4: 0.4594
[7]; [32]
  Array Heatmap signal, CHD5 (PCC): 0.7803
[8]; [32]
  Array Heatmap signal, MORC3 (CW): 0.5046
[9]; [32]
  Array Heatmap signal, PHF13: 0.601
[10]; [32]
  Array Heatmap signal, PHF21A: 0.4669
[11]; [32]
  Array Heatmap signal, PHRF1 (RP): 0.5333
[12]; [32]
  Array Heatmap signal, BAZ2B: 0.4222
[13]; [32]
  Array Heatmap signal, ING2: 0.7056
[14]; [32]
  Array Heatmap signal, ING5: 0.3414
[15]; [32]
  Array Heatmap signal, CHD4 (PPCC): 0.6064
[16]; [32]
  Array Heatmap signal, DIDO1: 0.8464
[17]; [32]
  Array Heatmap signal, BPTF (PB): 0.3713
[18]; [32]
  Array Heatmap signal, PHF23: 0.5778
[19]; [32]
  Array Heatmap signal, RAG2: 0.3673
[20]; [32]
  Array Heatmap signal, PHF2: 0.6992
[21]; [32]
  Array Heatmap signal, CHD5 (PPCC): 0.5185
[22]; [32]
  Array Heatmap signal, KDM5A (3): 0.592
[23]; [32]
  Array Heatmap signal, ING1: 0.6226
[24]; [32]
  Array Heatmap signal, TAF3: 0.3627
[25]; [32]
  Array Heatmap signal, KDM5B (1): 0.5673
[26]; [32]
  Array Heatmap signal, SP140L: 0.3742
[27]; [32]
  Array Heatmap signal, DPF2 (PPC2W2): 0.6858
[28]; [32]
  Array Heatmap signal, AIRE (PP): 0.4053
[29]; [32]
  Array Heatmap signal, KDM5B (3): 0.4789
[30]; [32]
  Array Heatmap signal, KDM5A (1): 0.422
[31]; [32]
  Array Heatmap signal, ING3: 0.5024
